Laboratory results from PubChem BioAssay AID720663 (NMMLSC, 2013).
Active and inactive are the calls of the source.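 Rule for the calls: active = inhibition above 50% of lysosomal marker LAMP-1 reaching the cell surface; inactive = inhibition below 50%.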

System: TALL-104 cells, LAMP-1 externalization, flow cytometry
Test: blockers of surface LAMP-1 appearance in TALL-104 – TALL-104 cells, flow cytometry, CherryPick01, confirmation (AID 720663)
Settings: at 30 µM; stronger effect = higher value

Row | SMILES | inhibition
1 | COc1cccc(-c2cnc3c(NC(C)=O)cc(-c4ccsc4)cn23)c1 | 53.2%
2 | CCCCCCSc1cccc(-c2nc3ccccn3c2NCc2ccccc2)c1 | -0.5% (inactive)
3 | O=C(OCc1ccccc1)N(CCCCN(CCCNCc1ccccc1)C(=O)OCc1ccccc1)CCCNCc1ccccc1 | 99.5%
4 | O=S(=O)(c1ccccc1)c1nnn2c1nc(NC1CCN(Cc3ccccc3)CC1)c1cc(Cl)ccc12 | 98.7%
5 | O=C(CN1C(=O)/C(=C\c2cccc(Br)c2)Oc2ccccc21)NCCCN1CCOCC1 | 77%
6 | CCC(=C(c1ccc(OC)cc1)c1ccc(OC)cc1)c1cn(CC(O)CN2CCN(C)CC2)c2ccccc12 (stereo not given) | 14.8% (inactive)
7 | COc1cccc(-c2cnc3c(NC=O)cc(-c4ccccc4)cn23)c1 | 38.8% (inactive)
8 | CCc1nc2ccc(C(=O)NC3CCN(Cc4ccccc4)CC3)cn2c1N(C)Cc1cc2ccccc2s1 | 22.5% (inactive)
9 | CCCCC[C@@H](C)N1C[C@H](COCc2ccccc2)Oc2cc(N3CC[C@@H](N(C)C)C3)ccc2S1(=O)=O | 93.7%
10 | O=CNc1cc(-c2ccsc2)cn2c(-c3ccccc3)cnc12 | 52.6%
11 | CCCS(=O)(=O)Nc1ccc(Nc2c3ccccc3nc3ccccc23)c(OC)c1 | 99.7%
12 | Fc1ccc(/C=C\c2nccc3c2[nH]c2ccccc23)cc1 | 98.7%
13 | CN1CCN(c2cc(-c3ccccc3)nc3cc(-c4ccc(F)cc4)nn23)CC1 | 99.7%
14 | CCc1ccc(/C=C2/Sc3ccccc3N(CC(=O)NCCCN3CCOCC3)C2=O)cc1 | 36.6% (inactive)
15 | Cn1cncc1C#Cc1c(-c2ccc(S(C)(=O)=O)cc2)sc2ccccc12 | 17% (inactive)
16 | CC(=O)Nc1ccc2c(=O)n(-c3ccccc3)sc2c1 | 39.8% (inactive)
17 | CCOC(=O)c1c(NC(=O)COc2ccccc2OCC)sc2c1CC(C)(C)NC2(C)C | 94.7%
18 | CCOC(=O)c1cc(-c2csc(Nc3c(C)cc(C)cc3C)n2)on1 | 70.1%
19 | CCCCC[C@@H](C)N1C[C@@H](COCc2ccccc2)Oc2cc(N3CC[C@H](N(C)C)C3)ccc2S1(=O)=O | 95.1%
20 | O=c1c2ccccc2sn1-c1ccccc1 | 79.9%
21 | CC1=C(C)CS(=O)N(S(=O)(=O)c2ccc(Cl)cc2)C1 (stereo not given) | 99.5%
22 | COc1ccc([N+](=O)[O-])cc1Nc1c2ccccc2nc2ccccc12 | 20.4% (inactive)
23 | Nc1c(C(=O)NCc2ccc(F)cc2)c2nc3ccccc3nc2n1CCCN1CCOCC1 | 58.3%
24 | COc1ccc(N2C(=O)CC(Sc3nnc(-c4ccccc4)o3)C2=O)cc1 (stereo not given) | 92.9%
25 | CC(C)(c1ccccc1)c1ccc(OCC(O)CNC2CCN(Cc3ccccc3)CC2)cc1 (stereo not given) | 97.6%

Row | SMILES | inhibition
26 | COc1ccccc1CNc1nc(NCc2ccc3occc3c2)c2sccc2n1 | 37.5% (inactive)
27 | O=c1c2ccccc2sn1-c1ccccc1F | 44% (inactive)
28 | CN(C)CCCNC(=S)NCC(c1ccc(Cl)cc1Cl)c1c[nH]c2ccccc12 (stereo not given) | 24% (inactive)
29 | CC1(C(=O)OCC(=O)Nc2nc(-c3ccc(F)c(F)c3)cs2)CC1(Cl)Cl (stereo not given) | -10.8% (inactive)
30 | CCCCC[C@@H](C)N1C[C@@H](COCc2ccccc2)Oc2cc(N3CC[C@@H](N(C)C)C3)ccc2S1(=O)=O | 95.3%
31 | Cn1sc(=O)c2cc(S(=O)(=O)NC3CC3)ccc21 | 73.2%
32 | COc1ccccc1CNc1nc(NCc2ccc(C(C)C)cc2)c2sccc2n1 | 78.5%
33 | O=C1CC(Sc2nnnn2-c2ccccc2)C(=O)N1c1cccc(Cl)c1 (stereo not given) | 89.1%
34 | CC1COCC(C)N1C1=C(Cl)C(=O)c2ccccc2C1=O (stereo not given) | 99.7%
35 | CCOc1ccc2nc(C)cc(Nc3cccc([N+](=O)[O-])c3)c2c1 | 100%
36 | COc1ccc(-n2sc3ccccc3c2=O)cc1 | 60.1%
37 | CCOc1ccc2nc(N(CCCN(C)C)C(=O)c3ccc(S(=O)(=O)N4CCc5ccccc5C4)cc3)sc2c1 | 100%
38 | COC(=O)c1c(NC(=O)c2ccc(C(=O)c3ccccc3)cc2)sc2c1CC(C)(C)NC2(C)C | 39.6% (inactive)
39 | CCCNC(=O)Cn1sc2nc(C)cc(C)c2c1=O | 41.7% (inactive)
40 | COC(=O)[C@]12CCCCC=C1N(Cc1cccc3ccccc13)C(=O)[C@H](CC(=O)NCc1ccc(OC)c(OC)c1)C2 | 15.9% (inactive)
41 | CCN(CC)CCCNc1ccc(-c2nnc(-c3ccc(OCC(C)C)cc3)o2)cn1 | 87.3%
42 | Cc1ccc(-n2nnc3c(=O)oc4ccccc4c32)cc1 | 98.8%
43 | CC(C)CNC(=O)c1c(N)n(Cc2ccc3c(c2)OCO3)c2nc3ccccc3nc12 | 21% (inactive)
44 | CCOc1ccc2[nH]c3c(N4CCc5ccccc5C4)ncnc3c2c1 | 5.2% (inactive)
45 | COC(=O)c1c(NC(=O)c2nc3ccccc3s2)sc2c1CC(C)(C)NC2(C)C | 81.5%
46 | O=C(Cn1sc2ccccc2c1=O)NC12CC3CC(CC(C3)C1)C2 | 50% (inactive)
47 | Cc1ccc(Nc2nc(NCc3ccco3)c3ccccc3n2)cc1 | 58.7%
48 | COc1cccc(NC(=O)Nc2nc(-c3ccc(OC)c(OC)c3)cs2)c1 | 99.6%
49 | CCOC(=O)c1c(CSc2ccccc2)n(C)c2cc(Br)c(O)c(CN(C)C)c12 | 25.5% (inactive)
50 | c1ccc(CNc2nc(NCC3CC3)nc3cc(-c4ccccc4)sc23)cc1 | 97.8%

Row | SMILES | inhibition
51 | COc1cc(-c2coc3c(C(=O)NCc4ccc(OC)c(OC)c4)cccc23)ccc1O | 29.4% (inactive)
52 | CN(C)CCNC(=O)c1ccc(-c2cn3c(-c4ccc(Oc5ccccc5)cc4)cnc3cn2)cc1 | 66.8%
53 | N#Cc1ccc(NC(=O)Nc2ccc(Oc3ccc(NC(=O)Nc4ccc(C#N)cc4)cc3)cc2)cc1 | 40.4% (inactive)
54 | CN(c1ccccc1)S(=O)(=O)c1cccc(C(=O)NCCc2c[nH]c3ccccc23)c1 | 13.7% (inactive)
55 | O=C(Nc1ccc(F)cc1)c1nc(S(=O)(=O)Cc2ccccc2)ncc1Cl | 98.8%
56 | CCOc1cc(CNCCc2ccc(S(N)(=O)=O)cc2)ccc1OCc1ccc(Cl)cc1 | 99.8%
57 | COc1cccc(-c2cnc3c(NC(C)=O)cc(-c4ccccc4OC)cn23)c1 | 56.1%
58 | CC(=O)Nc1ccc2sn(-c3ccccc3)c(=O)c2c1 | 26.4% (inactive)
59 | CC1=NOC(=O)/C1=C/c1ccc(-c2ccc(Cl)cc2)o1 | 84.6%
60 | CN1CCN(CCCNC(=O)c2ccc(/C=C3\Sc4ccccc4N(Cc4ccc(F)cc4)C3=O)cc2)CC1 | 4.5% (inactive)
61 | CCOc1ccccc1CNC(=O)C1CCN(c2nnc(C)c3c(C)n(-c4ccc(C)cc4)nc23)CC1 | 99.6%
62 | Cc1cc(C)c2nc(C)cc(N/N=C/c3ccc(O)cc3)c2c1 | 100%
63 | COc1ccc(-c2cc(NC=O)c3ncc(-c4cccc(OC)c4)n3c2)cc1 | 82.8%
64 | O=C1C=CC(=O)N1N(c1ccccc1)c1ccccc1 | 45.4% (inactive)
65 | O=C1Nc2ccc(Br)cc2/C1=C/C(=O)c1ccccc1 | 39.4% (inactive)
66 | CCCCn1c(=N)n(CC(=O)c2ccc(Br)s2)c2ccccc21 | 100%
67 | CCOC(=O)c1nnc(-c2ccccc2)nc1Sc1ccccc1Cl | 4.8% (inactive)
68 | N#Cc1c(Nc2ccccc2Cl)s[nH]c1=O | 95.1%
69 | O=C(Cn1sc2ccccc2c1=O)Nc1ccc(F)cc1 | 51.7%
70 | COc1ccc(-c2cc(NC=O)c3ncc(-c4ccccc4)n3c2)cc1OC | 69.9%
71 | Cc1cc(N2CCN(c3nc(-c4ccc([N+](=O)[O-])cc4)cs3)CC2)c2ccccc2n1 | 99.2%
72 | Cc1ccc(S(=O)(=O)n2ccc3c(OCCOCCNCc4ccc(F)cc4)cccc32)cc1 | 85%
73 | CCc1ccc2nc(N(CCCN(C)C)C(=O)c3ccc(S(=O)(=O)N4CCc5ccccc5C4)cc3)sc2c1 | 97.7%
74 | O=c1c2ccc(F)cc2sn1-c1ccccc1 | 77.6%
75 | OC(CNCC(c1ccc(Cl)cc1Cl)c1c[nH]c2ccccc12)c1ccccc1 (stereo not given) | 35.2% (inactive)
